{"source": "patent US12560609B2", "about": "“Biomarkers predictive of cancer cell response to ML329 or a derivative thereof” (Dana-Farber Cancer Institute, Inc., priority 2018, dated 2026)", "key": {"CK2 [1]": {"biological_target": "CK2 (Homo sapiens, UniProt P68400)", "sequence (P68400 whole entry)": "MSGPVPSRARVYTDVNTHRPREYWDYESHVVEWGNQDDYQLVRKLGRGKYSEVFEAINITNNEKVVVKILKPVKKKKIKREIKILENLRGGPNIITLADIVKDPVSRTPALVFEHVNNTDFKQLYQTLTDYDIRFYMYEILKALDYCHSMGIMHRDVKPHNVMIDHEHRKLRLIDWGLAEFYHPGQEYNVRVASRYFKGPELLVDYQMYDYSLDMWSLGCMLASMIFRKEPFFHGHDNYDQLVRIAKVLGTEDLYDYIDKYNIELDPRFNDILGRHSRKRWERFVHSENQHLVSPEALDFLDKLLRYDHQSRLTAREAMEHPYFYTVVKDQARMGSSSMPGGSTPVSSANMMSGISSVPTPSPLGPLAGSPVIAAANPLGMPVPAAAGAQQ", "experiment": "CK2 activity in vitro, with or without Nqo1", "type": "biochemical", "conditions": "for requirement of Nqo1 for inhibition of CK2 in vitro: FIG. 24E, 24F"}, "CK2 [2]": {"biological_target": "T1, CK2 (Homo sapiens, UniProt P19784+P68400)", "T1 construct": "endogenous in cells", "experiment": "SAR of ML329 derivatives: NQO1-dependent CK2 inhibitors", "type": "cell-based", "conditions": "FIG. 21"}, "[3]": {"test_system": "CK2alpha and CK2alpha prime", "experiment": "Target identification: bead pull-down from SK-MEL-5 lysate with ML329 competition, mass spectrometry", "type": "binding", "source_text": "Whole protein lysates were generated from SK-MEL-5 melanoma cells and mixed with either KUC114363 (a derivative of ML329 conjugated to agarose beads) or KUC114363 along with competing amounts of soluble ML329. Mass spectrometry was used to identify proteins that bound KUC114363 whose binding was diminished upon treatment with ML329. […] Kinases found to bound are marked with red circles, where larger circles indicate higher-affinity binding. KINOMEScan image was generated using TREEspot™ Software Tool and reprinted with permission from KINOMEscan®, a division of DiscoveRx Corporation, © DISCOVERX CORPORATION 2010."}, "MITF": {"test_system": "MITF", "experiment": "qPCR of MITF mRNA and MITF target genes", "type": "cell-based", "conditions": "FIG. 22", "source_text": "FIG. 26A-FIG. 26H show the results of a small molecule screen to identify regulators of lineage-specific melanoma oncogene MITF. […] SK-MEL-5 cells stably expressing the TRPM1 promoter fused to the luciferase gene were screened with 331,578 compounds. Secondary screens of putative hits including evaluating cytotoxicity in 2 MITF-dependent cell lines (SK-MEL-5, MALME) and 1 MITF-independent cell line (A375M) and evaluation the effect of candidate hits on the mRNA of MITF and target genes. […] BRD-K45681478 was the lead hit, which was modified by structure-function analysis to generate the compound ML329. FIG. 26B show cell number after 48 h treatment of melanoma cell lines (red) compared to non-melanoma cell lines (black) with ML329. […] MITF-dependent cell lines are depicted in green, whereas the MITF-independent cell line is depicted in red.\nML329 (4-[(1,4-dioxo-1,4-dihydronapthalen-2-yl)amino]benzenesulfonamide; KUC114363) is a small molecule that was initially identified as an inhibitor of microphthalmia-associated transcription factor (MITF) (FIGS. 1-6). Briefly, Sk-MEL-5 melanoma cells expressing the promoter of MITF target TRPM1, upstreatm of a luciferase gene, were screened with a library of 331,578 compounds. […] Greater than 90% of KEAP1-mutant lung cancers were determined to be sensitive to ML329 (FIG. 20)."}, "Nqo1": {"biological_target": "Nqo1 (Homo sapiens, UniProt P15559)", "sequence (P15559 whole entry, species assumed)": "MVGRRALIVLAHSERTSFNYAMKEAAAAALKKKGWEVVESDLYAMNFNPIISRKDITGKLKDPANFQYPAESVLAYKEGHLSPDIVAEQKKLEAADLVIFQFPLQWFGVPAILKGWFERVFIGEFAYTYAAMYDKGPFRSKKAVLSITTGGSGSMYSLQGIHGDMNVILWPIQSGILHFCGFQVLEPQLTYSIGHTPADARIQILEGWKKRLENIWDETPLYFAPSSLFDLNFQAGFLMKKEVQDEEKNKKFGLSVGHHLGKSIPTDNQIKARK", "experiment": "Reduction of ML329 by Nqo1 in vitro", "type": "biochemical", "conditions": "FIG. 24D"}, "WM266.4 cells": {"test_system": "WM266.4 cells", "experiment": "WM266.4 melanoma xenograft, tumor volume", "type": "in vivo", "conditions": "NSG mice xenografted with WM266.4 cells; 10 mg/kg twice daily"}, "489 cancer cell lines": {"test_system": "489 cancer cell lines", "experiment": "PRISM viability screen of 489 cancer cell lines", "type": "cell-based", "conditions": "489 cell lines, FIG. 30", "method": "Negative odds are associated with sensitivity to ML329 whereas positive odds are associated with insensitivity to ML329.\nStrictly Standardized Mean Difference (SSMD) was determined for each cell line. Cell lines with SSMD<2 were filtered out. All cell lines tested had SSMD>2."}, "[4]": {"test_system": "KEAP1-mutant lung cancer cells", "experiment": "Sensitivity of wild-type and KEAP1-mutated lung cancer cell lines to ML329", "type": "cell-based", "conditions": "sensitive cell lines had IC50<10 μM (FIG. 35B)", "method": "ML329 (4-[(1,4-dioxo-1,4-dihydronapthalen-2-yl)amino]benzenesulfonamide; […]) is a small molecule that was initially identified as an inhibitor of microphthalmia-associated transcription factor (MITF) (FIGS. 1-6). Briefly, Sk-MEL-5 melanoma cells expressing the promoter of MITF target TRPM1, upstreatm of a luciferase gene, were screened with a library of 331,578 compounds. Secondary screening was performed in two MITF-dependent melanoma cell links (SK-MEL-5 and MALME) and one non-MITF dependent cell line (A375). Candidate hits were tested for their effects on MITF target genes by qPCR. BRD-K45681478 was prioritized for medicinal chemistry. The lead compounds ML329 was used in subsequent studies. […] CK2 is an essential kinase and its reduction/inhibition is lethal (FIG. 11 and FIG. 12). Experiments were performed to determine that ML329 is bioreduced by an enzyme called NQO1, which is preferentially expressed in some cancer types, especially melanoma (FIGS. 13-15). Since ML329 is converted by cancer cells into an active form, it can avoid effects on normal cells. NQO1 is necessary and sufficient for the activity of ML329, thus enabling targeting of CK2 specifically to cancers with high NQO1 expression (FIGS. 16-18). […] Greater than 90% of KEAP1-mutant lung cancers were determined to be sensitive to ML329 (FIG. 20)."}}}
{"smiles": "O=C(O)c1ccc2c(c1)nc(Nc1cccc(Cl)c1)c1ccncc12", "note": "[CX4945, 5-[(3-Chlorophenyl)amino]benzo[c]-2,6-naphthyridine-8-carboxylic acid, reference compound]", "values": [{"measurement": "requirement of Nqo1 for inhibition of CK2 in vitro", "setting": "CK2 [1]", "value": "Nqo1 is not required"}, {"measurement": "potency and selectivity as NQO1-dependent CK2 inhibitor (SAR, relative to ML329)", "setting": "CK2 [2]", "value": "more potent and selective NQO1-dependent CK2 inhibitors"}]}
{"smiles": "NS(=O)(=O)c1ccc(NC2=CC(=O)c3ccccc3C2=O)cc1", "note": "[ML329, 4-[(1,4-dioxo-1,4-dihydronapthalen-2-yl)amino]benzenesulfonamide]", "values": [{"measurement": "binding to CK2 subunits in vitro", "setting": "[3]", "value": "binds to CK2alpha and CK2alpha prime"}, {"measurement": "requirement of Nqo1 for inhibition of CK2 in vitro", "setting": "CK2 [1]", "value": "Nqo1 is required"}, {"measurement": "inhibition of CK2 activity", "setting": "CK2 [1]; in vitro", "value": "inhibits CK2 activity in an ATP-competitive manner"}, {"measurement": "effect on MITF mRNA and target gene expression", "setting": "MITF", "value": "suppresses MITF mRNA and target gene expression"}, {"measurement": "substrate of Nqo1 in vitro", "setting": "Nqo1", "value": "direct substrate of Nqo1 in vitro"}, {"measurement": "in vivo activity in melanoma (tumor volume)", "setting": "WM266.4 cells", "value": "has in vivo activity in melanoma that requires NRF2/NQO1"}, {"measurement": "selectivity of cytotoxicity across cancer cell lines", "setting": "489 cancer cell lines", "value": "selectively cytotoxic in melanoma cells"}, {"measurement": "share of KEAP1-mutant lung cancers sensitive to ML329", "setting": "[4]", "value": "Greater than 90%"}]}
{"smiles": "NS(=O)(=O)c1cccc(NC2=CC(=O)c3ccccc3C2=O)c1", "note": "[SCAP105461]", "values": [{"measurement": "potency and selectivity as NQO1-dependent CK2 inhibitor (SAR, relative to ML329)", "setting": "CK2 [2]", "value": "more potent and selective NQO1-dependent CK2 inhibitors"}]}
{"smiles": "NC(=O)c1ccc(NC2=CC(=O)c3ccccc3C2=O)cc1", "note": "[SCAP105463]", "values": [{"measurement": "potency and selectivity as NQO1-dependent CK2 inhibitor (SAR, relative to ML329)", "setting": "CK2 [2]", "value": "more potent and selective NQO1-dependent CK2 inhibitors"}]}
